What was measured:
[1] = system: clot formation; assay: Thromboelastograph maximal amplitude (MA) of clot formation after 14-day oral administration to guinea pigs; assay type: in vivo, Hartley male guinea pigs; conditions: guinea pig, oral once a day for 14 days, pitavastatin calcium 3 mg/kg and/or aspirin 100 mg/kg; for Maximal amplitude (MA) of clot formation: blood after 18 hours of fasting, average ± standard deviation; for Maximal amplitude (MA) of clot formation, relative value: relative to control group (100)
Protocol: The animals used in the test were 6 week old Hartley male guinea pigs (Japan SLC, Inc.), and these animals were kept throughout the test period in a breeding chamber with controlled day and night cycle (light period under illumination of room light, 7 am to 7 pm) at a temperature of 23±3° C. and a humidity of 55±15%.
24 guinea pigs were divided into 4 groups (5 or 6 animals in each group), namely, control group (with no drug administration), the group solely administered with pitavastatin calcium (3 mg/kg), the group solely administered with aspirin (100 mg/kg), and the group administered with a combination of pitavastatin calcium (3 mg/kg) and aspirin (100 mg/kg).

[2] = system: whole blood coagulation; assay: Thromboelastograph whole blood coagulation time (r+k value) after 14-day oral administration to guinea pigs; conditions: guinea pig, oral once a day for 14 days, pitavastatin calcium 3 mg/kg and/or aspirin 100 mg/kg; for Whole blood coagulation time (r + k value): blood after 18 hours of fasting, average ± standard deviation; for Whole blood coagulation time (r + k value), relative value: relative to control group (100)

## CC(=O)Oc1ccccc1C(=O)O [Aspirin, acetyl salitylic acid]
[1]
  Maximal amplitude (MA) of clot formation: 71.0 ± 3.1 mm
  Maximal amplitude (MA) of clot formation, relative value: 98%
[2]
  Whole blood coagulation time (r + k value): 12.7 ± 1.6 min
  Whole blood coagulation time (r + k value), relative value: 109%

## O=C(O)C[C@H](O)C[C@H](O)/C=C/c1c(C2CC2)nc2ccccc2c1-c1ccc(F)cc1 [Pitavastatin, (3R,5S,6E)-7-[2-cyclopropyl-4-(4-fluorophenyl)-3-quinolyl]-3,5-dihydroxy-6-heptenoic acid]
[1]
  Maximal amplitude (MA) of clot formation: 71.8 ± 5.0 mm
  Maximal amplitude (MA) of clot formation, relative value: 99%
[2]
  Whole blood coagulation time (r + k value): 12.8 ± 2.4 min
  Whole blood coagulation time (r + k value), relative value: 110%

Source: patent publication US20060217352A1, “Method for treating thrombosis” (Kowa Co., Ltd., priority 2005, published 2006)
